According to patent US9222118B2 (priority 2008, dated 2015):
Entries after “also recorded” stand apart in the source; their conditions may differ. Where a name gives a salt, the structure may show the parent alone. Read-outs that look alike come from different tables or passages of the source.

How the values were obtained:
VSV = assay type: cell-based
[1] = test system: VSV pseudotyped with GPs of all known subtypes of Ebolavirus (Zaire, Reston, Sudan, Ivory Coast); assay type: cell-based
[2] = test system: phosphoinositide-3 (PI3) kinase-Akt pathway; assay type: cell-based
influenza virus = assay type: cell-based
[3] = test system: VSV pseudotyped with the GP protein of Marburgvirus; assay type: cell-based
[4] = test system: VSV pseudotyped with Ebola GP glycoprotein; assay type: cell-based, Ebolavirus
EbolaΔVP30-GFP = assay type: cell-based, Zaire ebolavirus
Ebolavirus minigenome = assay type: cell-based
VSVΔG*-Ebolavirus GP = assay type: cell-based
EbolaΔVP30-GFP virus = assay: microbe, parasite or virus in culture; assay type: cell-based, Zaire ebolavirus; conditions: for % GFP inhibition: 5 µM; for inhibition at 5 µM: read-out: % GFP inhibition
vaccinia virus = assay type: cell-based
[5] = test system: Vesicular stomatitis virus (VSV) strain Indiana; assay type: cell-based
in vitro = conditions: green monkey
adenovirus Ad-5 = assay type: cell-based

CN1C2CCC1CC(OC(c1ccccc1)c1ccccc1)C2 (centres unmarked) [benztropine mesylate]
effect on growth of VSV (VSV): does not affect the growth
reduction of titers of pseudotyped viruses [1]: 98-99%
inhibition of the PI3 kinase-Akt pathway [2]: did not inhibit
effect on growth of influenza virus (influenza virus): does not affect the growth
reduction of virus titers [3]: about 75%
infection of VSV pseudotyped with Ebola GP bound to cell surfaces [4]: inhibit infection

CCc1cc(-c2n[nH]c(C)c2-c2ccc3c(c2)OCCO3)c(O)cc1O [CCT 018159, 4-[4-(2,3-Dihydro-1,4-benzodioxin-6-yl)-5-methyl-1H-pyrazol-3-yl]-6-ethyl-1,3-benzenediol]
reduction of EbolaΔVP30 virus growth (EbolaΔVP30-GFP): 97%
% luc activity from the Ebolavirus minigenome (Ebolavirus minigenome): 8.8%±2.6%
effect on VSVΔG*-Ebolavirus GP infectivity (VSVΔG*-Ebolavirus GP): slightly reduced
Infectivities of VSVΔG*-Ebolavirus GP standardized by the infectivities of VSVΔG*-VSV G (VSVΔG*-Ebolavirus GP; 10 μM): 71%
reduction in Ebolavirus GP-dependent virus infection (VSVΔG*-Ebolavirus GP; 10 μM): ~30%

COC1=C2C[C@@H](C)C[C@H](OC)[C@H](O)[C@@H](C)/C=C(\C)[C@H](OC(N)=O)[C@@H](OC)/C=C\C=C(/C)C(=O)NC(=CC1=O)C2=O [GM, geldanamycin]
reduction of EbolaΔVP30 virus growth (EbolaΔVP30-GFP): 30%
% luc activity from the Ebolavirus minigenome (Ebolavirus minigenome): 24.7%±7.7%
Infectivities of VSVΔG*-Ebolavirus GP standardized by the infectivities of VSVΔG*-VSV G (VSVΔG*-Ebolavirus GP; 10 μM): 137%

CC(=O)O[C@H]1C[C@@H](O)C(C)(C)[C@@H]2C[C@@H](OC(C)=O)[C@]3(C)[C@H](CC[C@@]4(C)[C@@H](c5ccoc5)OC(=O)[C@H]5O[C@@]534)[C@@]12C [3-Deacetylkhivorin]
% cell viability (VeroVP30 cells): 102%
% GFP inhibition (EbolaΔVP30-GFP virus): 6%

CC1(C)C(=O)C=C[C@]2(C)[C@H]3CC[C@@]4(C)[C@H](c5ccoc5)OC(=O)[C@H]5O[C@]54[C@]3(C)C=C[C@@H]12 [7-Desacetoxy-6,7-dehydrogedunin]
% cell viability (VeroVP30 cells): 70%
% GFP inhibition (EbolaΔVP30-GFP virus): 2%

1,2alpha-Epoxy-7-Deacetoxy-7-Oxo-Deoxyhydrogedunin
CC50 (VeroVP30 cells): > 10 µM
% GFP inhibition (EbolaΔVP30-GFP virus): 75%
IC50 (EbolaΔVP30-GFP virus; read-out: IC50): 7.12 µM
% infectivity of VSVΔG*-Ebolavirus GP (VSVΔG*-Ebolavirus GP): 6.5±1.6%

1-Deacetoxy-1-oxo-3,7-dideacetylkhivorin
% cell viability (VeroVP30 cells): 94%
% GFP inhibition (EbolaΔVP30-GFP virus): 19%

7-Deacetoxy-3-deacetyl-7-oxokhivorin
% cell viability (VeroVP30 cells): 80%
CC50 (VeroVP30 cells): > 10 µM
% GFP inhibition (EbolaΔVP30-GFP virus): 92%
IC50 (EbolaΔVP30-GFP virus; read-out: IC50): 0.56 µM

CC(=O)O[C@@H]1C[C@H]2C(C)(C)C(=O)CC[C@]2(C)[C@H]2CC[C@@]3(C)[C@H](c4ccoc4)OC(=O)[C@H]4O[C@]43[C@@]21C [Dihydrogedunin]
% cell viability (VeroVP30 cells; green monkey): 79%
inhibition at 5 µM (EbolaΔVP30-GFP virus; Zaire ebolavirus): 96%

17-Allylamino-17-demethoxygeldanamycin [17-AAG]
reduction of EbolaΔVP30 virus growth (EbolaΔVP30-GFP): 92%
% luc activity from the Ebolavirus minigenome (Ebolavirus minigenome): 7.9%±1.5%
Infectivities of VSVΔG*-Ebolavirus GP standardized by the infectivities of VSVΔG*-VSV G (VSVΔG*-Ebolavirus GP; 10 μM): 110%

Heudelottin E
% cell viability (VeroVP30 cells): 93%
% GFP inhibition (EbolaΔVP30-GFP virus): −49%

CC(=O)O[C@@H]1CC2C(C)(C)C(=O)C3OC3[C@]2(C)C2CC[C@@]3(C)[C@H](c4ccoc4)OC(=O)C4OC43[C@@]21C (some centres unmarked) [Epoxygedunin]
inhibition of EbolaΔVP30-GFP growth (EbolaΔVP30-GFP): completely inhibited
% cell viability (VeroVP30 cells): 71%
CC50 (VeroVP30 cells): > 10 µM
% GFP inhibition (EbolaΔVP30-GFP virus): 103%
IC50 (EbolaΔVP30-GFP virus; read-out: IC50): < 0.15 µM
% luc activity from the Ebolavirus minigenome (Ebolavirus minigenome): 1.0%±0.1%
effect on protein expression from the Ebolavirus minigenome (Ebolavirus minigenome): inhibit protein expression from the Ebolavirus minigenome

CC(=O)O[C@@H]1CC2C(C)(C)C=CC(=O)[C@]2(C)C2CC[C@@]3(C)[C@H](c4ccoc4)OC(=O)C4OC43[C@@]21C (some centres unmarked) [Isogedunin]
% cell viability (VeroVP30 cells): 86%
% GFP inhibition (EbolaΔVP30-GFP virus): 35%

CC1(C)C(=O)[C@@H]2O[C@@H]2[C@@]2(C)C1C[C@@H](O)[C@]1(C)C2CC[C@@]2(C)[C@H](c3ccoc3)OC(=O)C3OC321 (stereo partly drawn) [1,2alpha-Epoxydeacetoxydihydrogedunin]
% cell viability (VeroVP30 cells): 77%
% GFP inhibition (EbolaΔVP30-GFP virus): 75%

CCC(C)C(=O)O[C@@H]1C[C@@]2(C)[C@H](c3ccoc3)OC(=O)CC23OC2(C)OC34[C@H](OC(=O)C(C)C)[C@@]3(O)[C@@H](OC(=O)C5(C)OC5C)[C@@]5(C)C[C@]3(O)[C@@](C)([C@H]5CC(=O)OC)C14O2 (some centres unmarked) [Entandrophragmin]
% cell viability (VeroVP30 cells): 83%
% GFP inhibition (EbolaΔVP30-GFP virus): −12%

CC(=O)O[C@H]1CC[C@]2(C)[C@H]3CC[C@@]4(C)[C@H](c5ccoc5)OC(=O)[C@H]5O[C@]54[C@]3(C)[C@H](OC(C)=O)C[C@H]2C1(C)C [3beta-Acetoxydeoxodihydrogedunin]
% cell viability (VeroVP30 cells): 80%
% GFP inhibition (EbolaΔVP30-GFP virus): 90%

C=C1C2CC[C@@]3(C)[C@H](c4ccoc4)OC(=O)C[C@]13O[C@H]1CC(=O)C(C)(C)[C@H](C(OC(C)=O)C(=O)OC)[C@@]21C (some centres unmarked) [6-Acetoxyangolensic acid methyl ester]
% cell viability (VeroVP30 cells): 88%
% GFP inhibition (EbolaΔVP30-GFP virus): 32%

C=C1[C@@H]([C@@]2(C)C=CC(=O)C(C)(C)[C@@H]2CC(=O)OC)CC[C@@]2(C)[C@H](c3ccoc3)OC(=O)[C@H]3O[C@]132 [Andirobin]
% cell viability (VeroVP30 cells; green monkey): 91%
inhibition at 5 µM (EbolaΔVP30-GFP virus; Zaire ebolavirus): -12%

CC(=O)OC1CC2C(C)(C)[C@@H](O)CC[C@]2(C)C2CC[C@]3(C)[C@H](c4ccoc4)OC(=O)[C@H]4O[C@]43[C@]12C (stereo partly drawn) [3beta-Hydroxydeoxodihydrogedunin]
% cell viability (VeroVP30 cells): 79%
% GFP inhibition (EbolaΔVP30-GFP virus): 75%

NS(=O)(=O)c1nn2cc(-c3ccccc3)nc2s1 [AEG 3482, 6-Phenylimidazo[2,1-b]-1,3,4-thiadiazole-2-sulfonamide]
reduction of EbolaΔVP30 virus growth (EbolaΔVP30-GFP): 5%
% luc activity from the Ebolavirus minigenome (Ebolavirus minigenome): 34.0%±8.0%
Infectivities of VSVΔG*-Ebolavirus GP standardized by the infectivities of VSVΔG*-VSV G (VSVΔG*-Ebolavirus GP; 10 μM): 135%

CC(=O)O[C@H]1C[C@@H](OC(C)=O)C(C)(C)C2C[C@@H](O)[C@]3(C)C(CC[C@@]4(C)[C@H](c5ccoc5)OC(=O)[C@H]5O[C@]543)[C@]21C (some centres unmarked) [7-Deacetylkhivorin]
% cell viability (VeroVP30 cells): 91%
% GFP inhibition (EbolaΔVP30-GFP virus): 13%

CC(=O)O[C@H]1C[C@@H](OC(C)=O)C(C)(C)C2CC(=O)[C@]3(C)C(CC[C@@]4(C)[C@H](c5ccoc5)OC(=O)[C@H]5O[C@]543)[C@]21C (some centres unmarked) [7-Deacetoxy-7-oxokhivorin]
% cell viability (VeroVP30 cells): 90%
% GFP inhibition (EbolaΔVP30-GFP virus): 26%

C=C1[C@@H]([C@@]2(C)[C@@H](OC(C)=O)CC(=O)O[C@](C)(COC(C)=O)[C@@H]2C(=O)OC)[C@@H](OC=O)[C@H](OC(=O)[C@H](O)[C@H](C)CC)[C@@]2(C)[C@H](c3ccoc3)CC(=O)[C@]12O [Prieurianin]
% cell viability (VeroVP30 cells; green monkey): 89%
inhibition at 5 µM (EbolaΔVP30-GFP virus; Zaire ebolavirus): -17%

CC(=O)O[C@@H]1C[C@H]2C(C)(C)[C@H](O)C[C@H](O)[C@]2(C)[C@H]2CC[C@@]3(C)[C@H](c4ccoc4)OC(=O)[C@H]4O[C@]43[C@@]21C [1,3-Dideacetylkhivorin]
% cell viability (VeroVP30 cells): 78%
% GFP inhibition (EbolaΔVP30-GFP virus): 82%

CC1(C)C=CC(=O)[C@@]2(C)C1CC(=O)[C@]1(C)C2CC[C@@]2(C)[C@H](c3ccoc3)OC(=O)C3OC321 (some centres unmarked) [Deacetoxy-7-oxisogedunin]
% cell viability (VeroVP30 cells): 84%
% GFP inhibition (EbolaΔVP30-GFP virus): 41%

CC(=O)OC1CC(OC(C)=O)C2(C)C(CC(OC(C)=O)C3(C)C2CCC2(C)C(c4ccoc4)OC(=O)C4OC423)C1(C)C (centres unmarked) [7-Epikhivorin]
% cell viability (VeroVP30 cells): 79%
% GFP inhibition (EbolaΔVP30-GFP virus): 4%

CC1(C)C(=O)C=C[C@]2(C)[C@H]3CC[C@@]4(C)[C@H](c5ccoc5)OC(=O)[C@H]5O[C@]54[C@]3(C)C(=O)C[C@@H]12 [Deacetoxy-7-oxogedunin]
% cell viability (VeroVP30 cells): 79%
% GFP inhibition (EbolaΔVP30-GFP virus): 80%

CC(=O)O[C@@H]1C[C@H]2C(C)(C)C(=O)C=C[C@]2(C)[C@H]2CC[C@@]3(C)[C@H](c4ccoc4)OC(=O)[C@H]4O[C@]43[C@@]21C [Gedunin]
inhibition of vaccinia virus growth (vaccinia virus): slightly delay the propagation
inhibition of VSV growth [5]: slightly delay the propagation
inhibition of EbolaΔVP30-GFP growth (EbolaΔVP30-GFP): completely inhibited
% cell viability (VeroVP30 cells; green monkey): 77%
IC50 (EbolaΔVP30-GFP virus; Zaire ebolavirus): 0.33 µM
inhibition at 5 µM (EbolaΔVP30-GFP virus; Zaire ebolavirus): 102%
% luc activity from the Ebolavirus minigenome (Ebolavirus minigenome): 1.3%±0.2%
effect on protein expression from the Ebolavirus minigenome (Ebolavirus minigenome): inhibit protein expression from the Ebolavirus minigenome
CC50 (in vitro): > 10 µM
inhibition of adenovirus growth (adenovirus Ad-5): slightly inhibitory; also recorded: slightly delay the propagation
